Laboratory results as given in ChEMBL document CHEMBL4513139, “CO-ADD screening of University of Strathclyde (UK) compounds”.
Several values for one entry are separate records, joined by “and”; a condition that tells them apart may be missing. Equal values may be shown once.

Key:
[1] = system: Escherichia coli; experiment: microbe, parasite or virus in culture; conditions: ATCC 25922, 18 h, ASSAY_TEST Inhibition of Bacterial Growth, detection method Absorption (OD600), MEDIA CAMHB, plate type 384well, NBS, CORNING #3640
Description: Antibacterial activity against Escherichia coli ATCC 25922 (CO-ADD:GN_001); MIC in CAMBH media using NBS plates, by OD(600)

[2] = system: Staphylococcus aureus; experiment: microbe, parasite or virus in culture; conditions: ATCC 43300, 18 h, ASSAY_TEST Inhibition of Bacterial Growth, detection method Absorption (OD600), MEDIA CAMHB, plate type 384well, NBS, CORNING #3640
Description: Antibacterial activity against Staphylococcus aureus MRSA ATCC 43300 (CO-ADD:GP_020); MIC in CAMBH media, using NBS plates, by OD(600)

[3] = system: Candida albicans; experiment: microbe, parasite or virus in culture; conditions: ATCC 90028, ASSAY_TEST Inhibition of Fungal Growth, detection method Absorption (OD530), plate type 384well, NBS, CORNING #3640
Description: Antifungal activity against Candida albicans ATCC 90028 (CO-ADD:FG_001); MIC in YNB media using NBS plates, by OD630

[4] = system: HEK293; experiment: cells; assay type: functional, Homo sapiens, ATCC CRL1573; conditions: ASSAY_TEST Inhibition of Cell Viability, detection method Resazurin, Fluorescence (ex560/em590), MEDIA DMEM with 10% FBS, plate type 384well, TC, CORNING #3712, time 18 hr
[5] = system: Pseudomonas aeruginosa; experiment: microbe, parasite or virus in culture; conditions: ATCC 27853, 18 h, ASSAY_TEST Inhibition of Bacterial Growth, detection method Absorption (OD600), MEDIA CAMHB, plate type 384well, NBS, CORNING #3640
Description: Antibacterial activity against Pseudomonas aeruginosa ATCC 27853 (CO-ADD:GN_042); MIC in CAMBH media using NBS plates, by OD(600)

[6] = system: Klebsiella pneumoniae; experiment: microbe, parasite or virus in culture; conditions: ATCC 700603, 18 h, ASSAY_TEST Inhibition of Bacterial Growth, detection method Absorption (OD600), MEDIA CAMHB, plate type 384well, NBS, CORNING #3640
Description: Antibacterial activity against Klebsiella pneumoniae MDR ATCC 70063 (CO-ADD:GN_003); MIC in CAMBH media using NBS plates, by OD(600)

[7] = system: Acinetobacter baumannii; experiment: microbe, parasite or virus in culture; conditions: ATCC 19606, 18 h, ASSAY_TEST Inhibition of Bacterial Growth, detection method Absorption (OD600), MEDIA CAMHB, plate type 384well, NBS, CORNING #3640
Description: Antibacterial activity against Acinetobacter baumannii ATCC 19606 (CO-ADD:GN_034); MIC in CAMBH media using NBS plates, by OD600

[8] = system: Cryptococcus neoformans
Description: Antifungal activity against Cryptococcus neoformans H99 ATCC 208821 (CO-ADD:FG_002); MIC in YNB media using NBS plates, by Resazurin OD(600-570)

[9] = Homo sapiens, ATCC CRL1573, HEK293, read-out: CC50

| SMILES | MIC [1] | MIC [2] | MIC [3] | CC50 [4, 9] | MIC [5] | MIC [6] | MIC [7] | MIC [8] | CC50 [4] |
| --- | --- | --- | --- | --- | --- | --- | --- | --- | --- |
| CN(C)CCNC(=O)c1cc(NC(=O)c2cc(NC(=O)c3ccc(/C=C/c4ccc(N(C)C)cc4)nc3)cn2C)cn1C.O=C(O)C(F)(F)F | > 32 µg/mL | 1 µg/mL | 1 µg/mL | 2.17 µg/mL | > 32 µg/mL | > 32 µg/mL | > 32 µg/mL | – | – |
| Cn1cc(NC(=O)c2ccc(/C=C/c3cnc4ccccc4c3)cc2)cc1C(=O)Nc1cc(C(=O)NCCN2CCOCC2)n(CCCc2ccccc2)c1.O=C(O)C(F)(F)F.O=C(O)C(F)(F)F | > 32 µg/mL | > 32 µg/mL | > 32 µg/mL | – | > 32 µg/mL | > 32 µg/mL | > 32 µg/mL | 4 µg/mL and 8 µg/mL | – |
| Cn1cc(NC(=O)c2ccc(/C=C/c3cnc4ccccc4c3)cc2)cc1C(=O)Nc1cc(C(=O)NCCN2CCOCC2)n(CCCN=[N+]=[N-])c1.O=C(O)C(F)(F)F.O=C(O)C(F)(F)F | > 32 µg/mL | 2 µg/mL | > 32 µg/mL | 4.48 µg/mL | > 32 µg/mL | > 32 µg/mL | > 32 µg/mL | 16 µg/mL | – |
| COc1ccc(C(=N)Nc2cc(C(=O)Nc3nc(C(=O)NCCN4CCOCC4)c(CCc4ccccc4)s3)n(C)c2)cc1.O=C(O)C(F)(F)F.O=C(O)C(F)(F)F | > 32 µg/mL | 8 µg/mL | > 32 µg/mL | 8.88 µg/mL | > 32 µg/mL | > 32 µg/mL | > 32 µg/mL | – | – |
| Cn1cc(NC(=O)c2cc(NC(=O)c3ccc(/C=C/c4cnc5ccccc5c4)cc3)cn2C)cc1C(=O)NCCC(=N)N.O=C(O)C(F)(F)F.O=C(O)C(F)(F)F | > 32 µg/mL | > 32 µg/mL | 32 µg/mL | 6.55 µg/mL | > 32 µg/mL | > 32 µg/mL | > 32 µg/mL | 8 µg/mL | – |
| Cn1cc(NC(=O)c2cc(NC(=O)c3ccc(/C=C/c4ccc5nonc5c4)cc3)cn2C)cc1C(=O)NCCN1CCOCC1.O=C(O)C(F)(F)F | > 32 µg/mL | > 32 µg/mL | > 32 µg/mL | – | > 32 µg/mL | > 32 µg/mL | > 32 µg/mL | > 32 µg/mL | – |
| COc1cccc(/C=C/c2ccc(C(=O)Nc3cc(C(=O)Nc4cc(C(=O)NCCN5CCOCC5)n(C)c4)n(C)c3)cc2)c1.O=C(O)C(F)(F)F | > 32 µg/mL | > 32 µg/mL | > 32 µg/mL | 3.75 µg/mL | > 32 µg/mL | > 32 µg/mL | > 32 µg/mL | – | 3.46 µg/mL |
| CN(C)CCNC(=O)c1cc(NC(=O)c2cc(NC(=O)c3ccc(/C=C/c4ccc(N(C)C)cc4)nc3)cn2C)cn1C.O=C(O)C(F)(F)F.O=C(O)C(F)(F)F | > 32 µg/mL | 2 µg/mL | 4 µg/mL | 1.13 µg/mL | > 32 µg/mL | > 32 µg/mL | > 32 µg/mL | 2 µg/mL | – |
| Cn1cc(NC(=O)c2cc(NC(=N)c3cnc4ccccc4c3)cn2C)cc1C(=O)NCCC(=N)N.O=C(O)C(F)(F)F.O=C(O)C(F)(F)F.O=C(O)C(F)(F)F | > 32 µg/mL | > 32 µg/mL | > 32 µg/mL | > 32 µg/mL | > 32 µg/mL | > 32 µg/mL | > 32 µg/mL | > 32 µg/mL | – |
| Cn1cc(NC(=O)c2ccc(/C=C/c3cnc4ccccc4c3)cc2)cc1C(=O)Nc1nc(C(=O)NCCN2CCOCC2)c(C2CCCCC2)s1.O=C(O)C(F)(F)F.O=C(O)C(F)(F)F | > 32 µg/mL | > 32 µg/mL | > 32 µg/mL | > 32 µg/mL | > 32 µg/mL | > 32 µg/mL | > 32 µg/mL | > 32 µg/mL | – |
| Cn1cc(NC(=O)c2cc(NC(=O)c3ccc(/C=C/C4CC4)cc3)cn2C)cc1C(=O)NCCN1CCOCC1.O=C(O)C(F)(F)F | > 32 µg/mL | > 32 µg/mL | > 32 µg/mL | – | > 32 µg/mL | > 32 µg/mL | > 32 µg/mL | 32 µg/mL | – |
| COc1ccc(/C=C/c2ccc(C(=O)Nc3cc(C(=O)Nc4nc(C(=O)NCCN5CCOCC5)c(C5CCCCC5)s4)n(C)c3)cn2)cc1.O=C(O)C(F)(F)F.O=C(O)C(F)(F)F | > 32 µM | > 32 µM | > 32 µM | 4.56 µg/mL | > 32 µM | > 32 µM | > 32 µM | > 32 µM | – |
